Counter-ions that a name gives are not always drawn.
Columns and labels:
HSD17B13 enzyme = HSD17B13 enzyme (Homo sapiens (Human), UniProt Q7Z5P4); assay: hHSD17B13 IC50 Assay (FAC beta-estradiol), purified protein enzyme activity assay with NAD(P)H-Glo luciferase readout; assay type: biochemical; conditions: geometric mean, 12 μM FAC beta-estradiol, 500 μM NAD+, read-out: hHSD17B13_IC50 GMean IC50
In short: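 Purified human HSD17B13 (30 nM FAC) incubated with compound, beta-estradiol and NAD+ for 2 h at room temperature in the dark. NADH formation was detected by NAD(P)H-Glo luminescence after 1 h. RLUs normalized to uninhibited enzyme (vehicle) as zero effect.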

wild type human HSD17B13 = wild type human HSD17B13 (Homo sapiens (Human), UniProt Q7Z5P4); assay: HEK_Beta-Est LCMS_IC50_Tekcel, whole-cell HEK-HSD17B13 inhibition assay, estrone production by LCMS; assay type: cell-based; conditions: geometric mean, HEK cells stably expressing wild type human HSD17B13, 25 μM FAC beta-estradiol, read-out: HEK_Beta-Est LCMS_IC50—Tekcel GMean IC50
In short: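 Readout was LCMS quantitation of estrone made from beta-estradiol with NAD+ as cofactor. Whole HEK-HSD17B13 cells were given compound for 1 hour, then the reaction for 2 hours, both at 37° C. Product area ratios were normalized to vehicle controls as zero percent effect.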

HSD17B13 enzyme, sequence (Q7Z5P4 20-300): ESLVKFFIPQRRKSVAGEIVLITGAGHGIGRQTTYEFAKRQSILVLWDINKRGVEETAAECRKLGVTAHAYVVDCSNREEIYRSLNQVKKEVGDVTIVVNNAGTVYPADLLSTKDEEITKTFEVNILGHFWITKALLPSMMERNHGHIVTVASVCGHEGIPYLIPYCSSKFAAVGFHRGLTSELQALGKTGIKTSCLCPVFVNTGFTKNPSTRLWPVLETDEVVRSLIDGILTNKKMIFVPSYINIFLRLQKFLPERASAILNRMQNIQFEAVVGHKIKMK
wild type human HSD17B13, sequence (Q7Z5P4 20-300): as above

SMILES | IC50 (HSD17B13 enzyme) | IC50 (wild type human HSD17B13)
O=C(NC[C@H]1CC[C@H](n2cc3ccc(-c4ncc(C5CC5)cn4)cc3n2)CC1)c1cc(F)c(O)c(F)c1 [Example 54, N-({(1r,4r)-4-[6-(5-cyclopropylpyrimidin-2-yl)-2H-indazol-2-yl]cyclohexyl}methyl)-3,5-difluoro-4-hydroxybenzamide] | 9.5 nM | 230 nM
O=C(NC[C@H]1CC[C@H](c2noc(-c3ccc(C(F)(F)F)cn3)n2)CC1)c1cc(F)c(O)c(F)c1 [Example 13, 3,5-Difluoro-4-hydroxy-N-{[(1r,4r)-4-{5-[5-(trifluoromethyl)pyridin-2-yl]-1,2,4-oxadiazol-3-yl}cyclohexyl]methyl}benzamide] | 17 nM | 470 nM
Cc1ccc(-c2noc([C@]34CC[C@](CNC(=O)c5cc(F)c(O)c(F)c5)(CC3)CC4)n2)nn1 [Example 123, 3,5-difluoro-4-hydroxy-N-({4-[3-(6-methylpyridazin-3-yl)-1,2,4-oxadiazol-5-yl]bicyclo[2.2.2]octan-1-yl}methyl)benzamide] | 10 nM | 460 nM
Cn1cc(-c2ccc3cn([C@H]4CC[C@H](CNC(=O)c5cc(F)c(O)c(F)c5)CC4)nc3c2)c(C2CC2)n1 [Example 35, N-({(1r,4r)-4-[6-(3-cyclopropyl-1-methyl-1H-pyrazol-4-yl)-2H-indazol-2-yl]cyclohexyl}methyl)-3,5-difluoro-4-hydroxybenzamide] | 10 nM | 350 nM
CC(C)(C)C(=O)Nc1ccc(-c2noc([C@H]3CC[C@H](CNC(=O)c4cc(F)c(O)c(F)c4)CC3)n2)nn1 [Example 17, N-{[(1r,4r)-4-{3-[6-(2,2-Dimethylpropanamido)pyridazin-3-yl]-1,2,4-oxadiazol-5-yl}cyclohexyl]methyl}-3,5-difluoro-4-hydroxybenzamide, ammonium salt] | 12 nM | 270 nM
O=C(NC[C@H]1CC[C@H](n2cc3ccc(-c4cnn(C(F)F)c4)cc3n2)CC1)c1cc(F)c(O)c(F)c1 [Example 44, N-{[(1r,4r)-4-{6-[1-(difluoromethyl)-1H-pyrazol-4-yl]-2H-indazol-2-yl}cyclohexyl]methyl}-3,5-difluoro-4-hydroxybenzamide] | < 2.6 nM | 92 nM
Cc1cnc(-c2ccc3cn([C@H]4CC[C@H](CNC(=O)c5cc(F)c(O)c(F)c5)CC4)nc3c2)nc1 [Example 74, 3,5-difluoro-4-hydroxy-N-({(1r,4r)-4-[6-(5-methylpyrimidin-2-yl)-2H-indazol-2-yl]cyclohexyl}methyl)benzamide] | 12 nM | 170 nM

More lines, now with the values ahead:

IC50 (HSD17B13 enzyme) | IC50 (wild type human HSD17B13) | SMILES
13 nM | 350 nM | COc1cnc(-c2noc([C@H]3CC[C@H](CNC(=O)c4cc(F)c(O)c(F)c4)CC3)n2)cn1 [Example 127, 3,5-difluoro-4-hydroxy-N-({(1r,4r)-4-[3-(5-methoxy-pyrazin-2-yl)-1,2,4-oxadiazol-5-yl]cyclohexyl}methyl) benzamide]
11 nM | 240 nM | O=C(NC[C@H]1CC[C@H](n2cc3cnc(-c4ccncc4)cc3n2)CC1)c1cc(F)c(O)c(F)c1 [Example 188, 3,5-difluoro-4-hydroxy-N-({(1r,4r)-4-[6-(pyridin-4-yl)-2H-pyrazolo[4,3-c]pyridin-2-yl]cyclohexyl}methyl) benzamide]
17 nM | 370 nM | O=C(NC[C@]12CC[C@](c3nc(-c4cnc(C(F)(F)F)cn4)no3)(CC1)CC2)c1ccc(O)c(F)c1F [Example 177, 2,3-difluoro-4-hydroxy-N-[(4-{3-[5-(trifluoromethyl)pyrazin-2-yl]-1,2,4-oxadiazol-5-yl}bicyclo[2.2.2]octan-1-yl)methyl]benzamide]
6.5 nM | 310 nM | O=C(NC[C@H]1CC[C@H](c2nc(-c3ncc(C(F)(F)F)cn3)no2)CC1)c1cc(F)c(O)cc1F [Example 198, 2,5-difluoro-4-hydroxy-N-{[(1r,4r)-4-{3-[5-(trifluoromethyl)pyrimidin-2-yl]-1,2,4-oxadiazol-5-yl}cyclohexyl]methyl} benzamide]
5.6 nM | 290 nM | Cn1nc(-c2noc([C@]34CC[C@](CNC(=O)c5cc(F)c(O)c(F)c5)(CC3)CC4)n2)ccc1=O [Example 146, 3,5-difluoro-4-hydroxy-N-({4-[3-(1-methyl-6-oxo-1,6-dihydro-pyridazin-3-yl)-1,2,4-oxadiazol-5-yl]bicyclo[2.2.2]octan-1-yl}methyl) benzamide]
16 nM | 390 nM | O=C(NC[C@]12CC[C@](c3nc(-c4ccc(C(F)(F)F)nc4)no3)(CC1)CC2)c1cc(F)c(O)cc1F [Example 195, 2,5-difluoro-4-hydroxy-N-[(4-{3-[6-(trifluoromethyl)pyridin-3-yl]-1,2,4-oxadiazol-5-yl}bicyclo [2.2.2]octan-1-yl)methyl]benzamide]
8.8 nM | 370 nM | O=C(NC[C@H]1CC[C@H](n2cc3cc(-c4cccnc4)ncc3n2)CC1)c1cc(F)c(O)c(F)c1 [Example 199, 3,5-difluoro-4-hydroxy-N-({(1r,4r)-4-[5-(pyridin-3-yl)-2H-pyrazolo[3,4-c]pyridin-2-yl]cyclohexyl}methyl) benzamide]

From patent US20240150334A1, “HSD17B13 INHIBITORS AND/OR DEGRADERS” (Pfizer Inc., priority 2022, published 2024)
